Test results as given in patent publication US20080269267A1, “KINASE INHIBITORS USEFUL FOR THE TREATMENT OF MYLEOPROLIFIC DISEASES AND OTHER PROLIFERATIVE DISEASES” (Deciphera Pharmaceuticals, LLC, priority 2007, published 2008).

What was measured:
Abl kinase (SEQ ID NO:1) = target: T1, Abl kinase (SEQ ID NO:1) (Homo sapiens, UniProt P00519); assay: Abl kinase assay (pyruvate kinase/lactate dehydrogenase coupled, ADP production); conditions: 2 h preincubation at 30° C., ATP 500 μM; read-out: Abl Enzyme Assay, biochemical IC50
T1 construct: purchased deCode Genetics
T1 sequence (P00519 with tags, fused parts or gaps): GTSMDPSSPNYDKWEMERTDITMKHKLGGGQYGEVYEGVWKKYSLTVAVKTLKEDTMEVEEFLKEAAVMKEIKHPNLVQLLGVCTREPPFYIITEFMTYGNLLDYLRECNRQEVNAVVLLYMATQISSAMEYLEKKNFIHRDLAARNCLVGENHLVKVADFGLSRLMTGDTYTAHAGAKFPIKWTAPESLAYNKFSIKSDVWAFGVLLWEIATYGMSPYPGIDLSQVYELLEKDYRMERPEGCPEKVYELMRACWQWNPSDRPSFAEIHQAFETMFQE
Experimental: Abl Kinase (SEQ ID NO:1) Assay
Activity of Abl kinase (SEQ ID NO:1) was determined by following the production of ADP from the kinase reaction through coupling with the pyruvate kinase/lactate dehydrogenase system (e.g., Schindler, et al. Science (2000) 289, 1938-1942). In this assay, the oxidation of NADH (thus the decrease at A340nm) was continuously monitored spectrophometrically. The reaction mixture (100 μl) contained Abl kinase (1 nM. Abl from deCode Genetics), peptide substrate (EAIYAAPFAKKK. 0.2 mM), MgCl2 (10 mM), pyruvate kinase (4 units), lactate dehydrogenase (0.7 units), phosphoenol pyruvate (1 mM), and NADH (0.28 mM) in 90 mM Tris buffer containing 0.2% octyl-glucoside and 3.5% DMSO, pH 7.5. Test compounds were incubated with Abl (SEQ ID NO:1) and other reaction reagents at 30° C. for 2 h before ATP (500 μM) was added to start the reaction. The absorption at 340 nm was monitored continuously for 2 hours at 30° C. on Polarstar Optima plate reader (BMG). The reaction rate was calculated using the 1.0 to 2.0 h time frame. Percent inhibition was obtained by comparison of reaction rate with that of a control (i.e. with no test compound). IC50 values were calculated from a series of percent inhibition values determined at a range of inhibitor concentrations using software routines as implemented in the GraphPad Prism software package.

[1] = target: T2, BaF3 cells transfected with wild type p210 BCR-Abl (Homo sapiens, UniProt P00519); assay: Ba/F3 p210 whole cell proliferation assay (Cell Titer Blue, 72 hours); type: cell-based; conditions: 72 hours incubation; read-out: Ba/F3 p210 whole cell proliferation assay, antiproliferation IC50
T2 construct: fused on or other part: P11274 (Breakpoint cluster region protein)
T2 sequence (P00519 whole entry, change not shown, the tested form may be a part): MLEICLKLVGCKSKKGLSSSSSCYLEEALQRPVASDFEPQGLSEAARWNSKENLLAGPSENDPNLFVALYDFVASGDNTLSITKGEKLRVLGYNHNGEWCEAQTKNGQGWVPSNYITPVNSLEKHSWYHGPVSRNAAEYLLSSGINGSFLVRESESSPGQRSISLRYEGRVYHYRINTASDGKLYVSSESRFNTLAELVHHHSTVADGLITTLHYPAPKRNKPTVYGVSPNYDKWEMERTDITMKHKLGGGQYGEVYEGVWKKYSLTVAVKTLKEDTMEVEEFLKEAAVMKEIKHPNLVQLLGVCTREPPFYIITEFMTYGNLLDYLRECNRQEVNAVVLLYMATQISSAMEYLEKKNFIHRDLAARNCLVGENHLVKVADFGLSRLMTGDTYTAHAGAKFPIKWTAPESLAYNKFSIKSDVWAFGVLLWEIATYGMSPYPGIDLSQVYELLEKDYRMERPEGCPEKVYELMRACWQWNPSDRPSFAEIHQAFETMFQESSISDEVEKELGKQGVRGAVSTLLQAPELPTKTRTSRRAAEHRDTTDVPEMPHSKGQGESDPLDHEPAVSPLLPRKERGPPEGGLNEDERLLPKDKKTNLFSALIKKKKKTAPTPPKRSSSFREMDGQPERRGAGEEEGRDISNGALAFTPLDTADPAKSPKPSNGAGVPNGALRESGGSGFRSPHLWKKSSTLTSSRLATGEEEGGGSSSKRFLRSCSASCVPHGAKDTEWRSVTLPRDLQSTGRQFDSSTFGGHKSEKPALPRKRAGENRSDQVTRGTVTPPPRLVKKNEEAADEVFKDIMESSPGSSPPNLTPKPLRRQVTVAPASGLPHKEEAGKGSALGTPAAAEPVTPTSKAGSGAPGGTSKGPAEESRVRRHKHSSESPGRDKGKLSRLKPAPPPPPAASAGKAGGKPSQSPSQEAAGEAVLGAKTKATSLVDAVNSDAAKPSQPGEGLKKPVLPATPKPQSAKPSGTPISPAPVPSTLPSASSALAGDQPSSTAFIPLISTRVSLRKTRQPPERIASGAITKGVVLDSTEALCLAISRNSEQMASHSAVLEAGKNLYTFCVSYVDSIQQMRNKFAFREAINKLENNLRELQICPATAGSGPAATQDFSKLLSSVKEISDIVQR
Experimental: BaF3 cells (parental or transfected with the following: wild type p210 BCR-Abl and T315I p210 BCR-Abl was obtained from Professor Richard Van Etten (New England Medical Center, Boston, Mass.). Briefly, cells were grown in RPMI 1640 supplemented with 10% characterized fetal bovine serum (HyClone, Logan, Utah) at 37 degrees Celsius, 5% CO2, 95% humidity. Cells were allowed to expand until reaching 80% saturation at which point they were subcultured or harvested for assay use.
A serial dilution of test compound was dispensed into a 96 well black clear bottom plate (Corning, Corning, N.Y.). For each cell line, three thousand cells were added per well in complete growth medium. Plates were incubated for 72 hours at 37 degrees Celsius, 5% CO2, 95% humidity. At the end of the incubation period Cell Titer Blue (Promega, Madison, Wis.) was added to each well and an additional 4.5 hour incubation at 37 degrees Celsius, 5% CO2, 95% humidity was performed. Plates were then read on a BMG Fluostar Optima (BMG, Durham, N.C.) using an excitation of 544 nm and an emission of 612 nm. Data was analyzed using Prism software (Graphpad, San Diego, Calif.) to calculate IC50's.

[2] = target: T3, C-Met kinase (SEQ ID NO:10) (Homo sapiens, UniProt P08581); assay: C-Met kinase assay (pyruvate kinase/lactate dehydrogenase coupled); conditions: 0.5 h preincubation at 22° C., ATP 100 μM; read-out: c-Met Enzyme Assay, biochemical IC50
T3 construct: purchased Invitrogen PV3143
T3 sequence (P08581 with tags, fused parts or gaps): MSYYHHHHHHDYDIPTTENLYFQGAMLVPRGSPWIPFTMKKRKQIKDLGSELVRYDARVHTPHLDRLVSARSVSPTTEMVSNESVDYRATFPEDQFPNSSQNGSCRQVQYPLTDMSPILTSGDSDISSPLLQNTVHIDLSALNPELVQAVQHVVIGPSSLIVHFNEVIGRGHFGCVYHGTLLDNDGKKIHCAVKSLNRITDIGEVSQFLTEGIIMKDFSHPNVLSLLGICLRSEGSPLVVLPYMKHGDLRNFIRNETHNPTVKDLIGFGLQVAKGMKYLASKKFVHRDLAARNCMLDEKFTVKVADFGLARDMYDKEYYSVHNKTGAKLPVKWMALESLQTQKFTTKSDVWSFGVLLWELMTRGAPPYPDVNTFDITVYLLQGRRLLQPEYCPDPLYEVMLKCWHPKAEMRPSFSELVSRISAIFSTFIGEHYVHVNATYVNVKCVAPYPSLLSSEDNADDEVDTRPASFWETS
Experimental: C-Met Kinase (SEQ ID NO:10) Assay
Activity of C-Met kinase (SEQ ID NO:10) was determined by following the production of ADP from the kinase reaction through coupling with the pyruvate kinase/lactate dehydrogenase system (e.g., Schindler, et al. Science (2000) 289, 1938-1942). In this assay, the oxidation of NADH (thus the decrease at A340 nm) was continuously monitored spectrophometrically. The reaction mixture (100 μl) contained C-Met (c-Met residues; 956-1390, from Invitrogen, catalogue #PV3143, 6 nM), polyE4Y (1 mg/ml), MgCl2 (10 mM), pyruvate kinase (4 units), lactate dehydrogenase (0.7 units), phosphoenol pyruvate (1 mM), and NADH (0.28 mM) in 90 mM Tris buffer containing 0.25 mM DTT, 0.2% octyl-glucoside and 1% DMSO, pH 7.5. Test compounds were incubated with C-Met (SEQ ID NO:10) and other reaction reagents at 22° C. for 0.5 h before ATP (100 μM) was added to start the reaction. The absorption at 340 n=was monitored continuously for 2 hours at 30° C. on Polarstar Optima plate reader (BMG). The reaction rate was calculated using the 1.0 to 2.0 h time frame. Percent inhibition was obtained by comparison of reaction rate with that of a control (i.e. with no test compound). IC50 values were calculated from a series of percent inhibition values determined at a range of inhibitor concentrations using software routines as implemented in the GraphPad Prism software package.

IC50 (Abl kinase (SEQ ID NO:1)) [nM]	GI50 [1] [nM]	IC50 [2] [nM]	Compound
< 100	< 100	< 1000	CC(C)n1cc(NC(=O)Nc2ccc(Oc3ccnc(-c4cnn(C)c4)c3)cc2F)c(-c2ccccc2)n1 [Example 21, 1-(2-fluoro-4-(2-(1-methyl-1H-pyrazol-4-yl)pyridin-4-yloxy)phenyl)-3-(1-isopropyl-3-phenyl-1H-pyrazol-4-yl)urea]
< 100	< 100	< 100	CC(C)c1cc(NC(=O)Nc2ccc(Oc3ccnc(-c4cnn(C)c4)c3)cc2F)n(-c2cccc(F)c2)n1 [Example 24, 1-(2-fluoro-4-(2-(1-methyl-1H-pyrazol-4-yl)pyridin-4-yloxy)phenyl)-3-(1-(3-fluorophenyl)-3-isopropyl-1H-pyrazol-5-yl)urea]
< 100	< 1000	< 1000	Cn1cc(-c2cc(Oc3ccc(NC(=O)Nc4cc(-c5ccccc5F)nn4C)c(F)c3F)ccn2)cn1 [Example 25, 1-(2,3-difluoro-4-(2-(1-methyl-1H-pyrazol-4-yl)pyridin-4-yloxy)phenyl)-3-(3-(2-fluorophenyl)-1-methyl-1H-pyrazol-5-yl)urea]
